Measured values reported in patent US9963445B2, “Chemical compounds” (SYNGENTA PARTICIPATIONS AG, priority 2013, dated 2018).

How the values were obtained:
Assay type in all cases: in vivo
Abutilon theophrasti [1] = experiment: Pre-emergence herbicidal activity, glasshouse pot test; conditions: pre-emergence spray, rate 1000 g/ha, evaluated after 13 days, scale 0-5
In short: (§1)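 Test species were sown in pots and, after one day under controlled glasshouse conditions, treated with an aqueous spray of the active ingredient in acetone/water containing 0.5% Tween 20. Evaluation followed 13 days later, scoring plant damage from 0 (none) to 5 (total).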

Alopecurus myosuroides [2] = experiment: as above; conditions: pre-emergence spray, rate 1000 g/ha, evaluated after 13 days, scale 0-5
In short: as §1

Amaranthus retroflexus [3] = experiment: as above; conditions: pre-emergence spray, rate 1000 g/ha, evaluated after 13 days, scale 0-5
In short: as §1

Echinochloa crus-galli [4] = experiment: as above; conditions: pre-emergence spray, rate 1000 g/ha, evaluated after 13 days, scale 0-5
In short: as §1

Setaria faberi [5] = experiment: as above; conditions: pre-emergence spray, rate 1000 g/ha, evaluated after 13 days, scale 0-5
In short: as §1

zea mays [6] = experiment: as above; conditions: pre-emergence spray, rate 1000 g/ha, evaluated after 13 days, scale 0-5
In short: as §1

Abutilon theophrasti [7] = experiment: Post-emergence herbicidal activity, glasshouse pot test; design: key: 0 = no damage to plant, 5 = total damage to plant; conditions: Application post-emergence, rate 1000 g/ha, evaluated after 13 days
In short: (§2)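 Seeds sown in standard soil in pots, grown 8 days in glasshouse (24/16 °C day/night, 14 h light, 65% humidity), then sprayed with aqueous solution from active ingredient formulated in acetone/water (50:50) with 0.5% Tween 20. Plants regrown under same conditions, watered twice daily; damage scored after 13 days (0 none–5 total).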

Alopecurus myosuroides [8] = experiment: as above; design: key: 0 = no damage to plant, 5 = total damage to plant; conditions: Application post-emergence, rate 1000 g/ha, evaluated after 13 days
In short: as §2

Amaranthus retroflexus [9] = experiment: as above; design: key: 0 = no damage to plant, 5 = total damage to plant; conditions: Application post-emergence, rate 1000 g/ha, evaluated after 13 days
In short: as §2

Echinochloa crus-galli [10] = experiment: as above; design: key: 0 = no damage to plant, 5 = total damage to plant; conditions: Application post-emergence, rate 1000 g/ha, evaluated after 13 days
In short: as §2

Setaria faberi [11] = experiment: as above; design: key: 0 = no damage to plant, 5 = total damage to plant; conditions: Application post-emergence, rate 1000 g/ha, evaluated after 13 days
In short: as §2

zea mays [12] = experiment: as above; design: key: 0 = no damage to plant, 5 = total damage to plant; conditions: Application post-emergence, rate 1000 g/ha, evaluated after 13 days
In short: as §2

SMILES | ABUTH damage score, application pre-emergence (Abutilon theophrasti [1]) | ALOMY damage score, application pre-emergence (Alopecurus myosuroides [2]) | AMARE damage score, application pre-emergence (Amaranthus retroflexus [3]) | ECHCG damage score, application pre-emergence (Echinochloa crus-galli [4]) | SETFA damage score, application pre-emergence (Setaria faberi [5]) | ZEAMX damage score, application pre-emergence (zea mays [6]) | ABUTH herbicidal damage score (Abutilon theophrasti [7]) | ALOMY herbicidal damage score (Alopecurus myosuroides [8]) | AMARE herbicidal damage score (Amaranthus retroflexus [9]) | ECHCG herbicidal damage score (Echinochloa crus-galli [10]) | SETFA herbicidal damage score (Setaria faberi [11]) | ZEAMX herbicidal damage score (zea mays [12])
CC1=C(Cl)C(=O)N(c2cc(C)c(-c3ccsc3)cn2)C1O (stereo not drawn) [AF104] | 1 | 0 | 5 | 1 | 1 | 0 | 4 | 2 | 5 | 5 | 5 | 0
CC1=C(Cl)C(=O)N(c2cc(C(C)C)ncn2)C1O (stereo not drawn) [CF19] | 5 | 2 | 5 | 4 | 4 | 2 | 5 | 3 | 5 | 5 | 5 | 3
COC1=C(C)C(O)N(c2cc(C(C)(C)F)c(C)nn2)C1=O (stereo not drawn) [BI16] | 5 | 3 | 5 | 4 | 5 | 3 | 5 | 4 | 5 | 5 | 5 | 4
C=C(OCC)c1nnc(N2C(=O)C(OC)=C(C)C2O)cc1C(C)(F)F (stereo not drawn) [BI19] | 5 | 3 | 5 | 5 | 3 | 2 | 5 | 4 | 5 | 5 | 4 | 3
COC1=C(C)C(O)N(c2cc(C)c(C(=O)NC(C)C(C)C)cn2)C1=O (stereo not drawn) [AI36] | 5 | 4 | 5 | 4 | 5 | 2 | 5 | 5 | 5 | 5 | 5 | 3
COC1=C(C)C(O)N(c2cc(C(F)(F)F)c(C(=O)N(C)C)cn2)C1=O (stereo not drawn) [AI11] | 5 | 4 | 5 | 4 | 4 | 4 | 5 | 5 | 5 | 5 | 5 | 4
COc1ccc(N2C(=O)C(Cl)=C(C)C2O)nc1 (stereo not drawn) [AF56] | 2 | 0 | 1 | 0 | 0 | 0 | 5 | 4 | 3 | 4 | 4 | 2
CC1=C(Cl)C(=O)N(c2ccc([S+](C)[O-])cn2)C1O (stereo not drawn) [AF53] | 0 | 2 | 1 | 1 | 0 | 1 | 3 | 3 | 1 | 3 | 3 | 0
CC1=C(Cl)C(=O)N(c2cc(C#N)ncn2)C1O (stereo not drawn) [CF13] | 0 | 0 | 0 | 0 | 0 | 1 | 2 | 3 | 2 | 1 | 3 | 1
CC1=C(Cl)C(=O)N(c2cc(C#N)ccn2)C1O (stereo not drawn) [AF50] | 0 | 2 | 0 | 0 | 1 | 0 | 5 | 5 | 1 | 5 | 5 | 2
